Test [1] deals with LC3-GFP (H4-LC3-GFP cells). Put plainly: Starvation induced autophagy in H4-LC3-GFP cells. The test is classed as cell-based. The conditions noted are these: Hanks buffer 1 h; MBCQ 5 μM, 3-MA 10 mM, wortmannin 0.1 μM. The source says:
FIG. 2 depicts results relating to MBCQ inhibition of autophagy induced by starvation. Quantitative measurement of LC3-GFP spot number per cell (a), spot size per cell (b) and spot intensity per cell (c) using HCS and expressed as % of control.

Another test has as its system bax/bak DKO MEF cells. Briefly: Etoposide induced cell death of bax/bak DKO cells. The test is classed as cell-based, mouse. The conditions noted are these: etoposide 8 μM; MBCQ 10 μM, spautin 10 μM, 3-MA 10 mM; 8 h. As to the method: C, cells were collected for western blotting using anti-LC3 antibody. α-tubulin was used as a control. D-F, Bax/bak DKO cells were treated with spautin (10 μM) or indicated concentration, in the presence of or absent etoposide (8 μM) for 8 h or indicated time. […] F, Cells were collected for western blotting using anti-LC3 antibody. α-tubulin was used as a control.
Autophagy has been proposed to contribute to cell death in a number of apoptotic deficient cell types. For example, bax/bak double deficient mouse embryonic fibroblast cells (DKO mefs) are highly resistant to apoptosis (Wei, M. C., Zong, W. X., Cheng, E. H., Lindsten, T., Panoutsakopoulou, V., Ross, A. J., Roth, K. A., MacGregor, G. R., Thompson, C. B., and Korsmeyer, S. J. (2001). Proapoptotic BAX and BAK: a requisite gateway to mitochondrial dysfunction and death. Science 292, 727-730).

The test system of a further test is Vps34 complexes. Briefly: Levels of endogenous Beclin1, Vps34, Atg14L in H4 and 293T cells (western blot). The conditions noted are these: H4 cells and 293T cells; 10 μM; 3-MA 10 mM. A general note: In western blotting, separated proteins are transferred to a membrane and probed.
Another test deals with LC3-GFP (H4-LC3 cells). Briefly: LC3-GFP image-based autophagy assay in H4-LC3 cells. The test is classed as cell-based. The conditions noted are these: with rapamycin; MY-5445 30 μM, dipyridamole 80 μM, IBMX 100 μM, sildenafil 10 μM. Here is the method:
FIG. 1 relates to identification of a small molecule inhibitor of autophagy by an image-based screen. A, structure of MBCQ. B, Quantitative analysis of LC3-GFP spot number per cell (a), spot size per cell (b), spot intensity per cell (c). The data are expressed as % of control vehicle treated cells. H4-LC3 cells were seeded in 96 well-plates and incubated with vehicle control (1% DMSO), 0.2 μM rapamycin with or without 10 μM MBCQ for indicated time, fixed with 4% paraformaldehyde and stained with 4,6-diamidino-2-phenylindole (DAPI, 3 μg/ml). Images of 1000 cells for each compound treatment were analyzed by ArrayScan HCS 4.0 Reader with a 20× objective (Cellomics, Pittsburgh, Pa.).
(§1) FIG. 14 depicts MBCQ derivatives that can inhibit autophagy. To calculate EC50, H4-LC3 cells were seeded in 96 well-plates and cultured in the presence of compounds in different concentration for 24 h, and then fixed with polyformate and stained with 4,6-diamidino-2-phenylindole (DAPI, 3 μg/ml). Images data were collected with an ArrayScan HCS 4.0 Reader with a 20× objective (Cellomics, Pittsburgh, Pa.) for DAPI labeled nuclei and GFP-LC3, a marker for autophagy. The Spot Detector Bio-Application was used to acquire and analyze the images after optimization. Images of 1000 cells for each compound treatment were analyzed to obtain average cell number per field, fluorescence spot number, area and intensity per cell. DMSO and rapamycin were used as negative or positive control, respectively. The percentages of changes of LC3-GFP were calculated by dividing with that of DMSO treated samples. Each treatment was done in triplicate for mean and SD. The images were also analyzed using a conventional fluorescence microscope for visual inspection. The experiments were repeated three times
as §1, with “15” for “14”, “with reduced or no ability to” for “that can”, “times.” for “times”
To explore the mechanism of autophagy and identify additional small molecules that can activate it, a high-throughput image-based screen for autophagy regulators was developed. This system takes advantage of the localization of light chain 3 coupled to GFP (LC3-GFP) to autophagosomal membrane upon induction of autophagy (Zhang, L., Yu, J., Pan, H., Hu, P., Hao, Y., Cai, W., Zhu, H., Yu, A. D., Xie, X., Ma, D., et al. (2007). Small molecule regulators of autophagy identified by an image-based high-throughput screen. Proc Natl Acad Sci USA 104, 19023-19028). […] Compounds that increase cellular levels of LC3-GFP, however, are not necessarily able to increase degradative activity of autophagy. Instead, the increases of LC3-GFP may be associated with cell death or may be a result of lysosomal defect and thus associated with blockage of autophagy. […]

The target of a further test is PDE5 (Homo sapiens, UniProt O76074). Briefly: Determination of % inhibition of PDE5 activity. The test is classed as biochemical. The conditions noted are these: for inhibition at 0.2 µM: Concentration = 0.2 μM; for inhibition at 2 µM: Concentration = 2 μM; for inhibition at 20 µM: Concentration = 20 μM.

Experimental for Vps34 complexes: Twenty-four hours after the transfection, the cells were treated with indicated compounds for 12 h. The cell lysates were analyzed by western blotting using anti-HA, anti-flag or anti-tubulin. […] The cell lysates were harvested and analyzed by western blotting using: anti-Beclin1, anti-Atg14, anti-Vps34 and anti-UVRAG. Anti-α-tubulin was used as loading controls. […] The cell lysates were harvested and analyzed by western blotting using: anti-Beclin1 and anti-LC3. Anti-α-tubulin was used as loading controls.

Turning to `Cn1cnc(N)c2ncnc1-2` [3-MA, 3-methyladenine], the “starvation induced autophagy (LC3-GFP spot number, size, intensity)” value in test [1] is reported as “inhibited”. Also, the “cell death induced by etoposide” value with bax/bak DKO MEF cells is “inhibits etoposide induced death”. For the same compound, the “levels of endogenous Beclin1, Vps34 and Atg14L” value with Vps34 complexes was “no effect on endogenous Beclin1”.

For `CC(C)Cn1c(=O)n(C)c(=O)c2[nH]cnc21` [IBMX], in the test with LC3-GFP (H4-LC3 cells), the activity on autophagy entry is reported as “None of the PDE5 inhibitors tested”.

As to `Clc1cccc(Nc2nnc(-c3ccccc3)c3ccccc23)c1` [MY-5445], the activity on autophagy result in the test on LC3-GFP (H4-LC3 cells) is listed as “None of the PDE5 inhibitors tested”.

Turning to `OCCN(CCO)c1nc(N2CCCCC2)c2nc(N(CCO)CCO)nc(N3CCCCC3)c2n1` [dipyridamole], the activity on autophagy result with LC3-GFP (H4-LC3 cells) is “None of the PDE5 inhibitors tested”.

With `CCCOc1ccccc1-c1nc2nn[nH]c2c(=O)[nH]1` [Zaprinast], on PDE5, the inhibition at 0.2 µM was determined as 38%, the inhibition at 2 µM came to 88.4% and the inhibition at 20 µM turned out to be 102%.

With `CCCc1nn(C)c2c(=O)[nH]c(-c3cc(S(=O)(=O)N4CCN(C)CC4)ccc3OCC)nc12` [Sildenafil], the activity on autophagy entry in the test on LC3-GFP (H4-LC3 cells) was “None of the PDE5 inhibitors tested”. Besides, on PDE5, the inhibition at 0.2 µM came to 96.5%, the inhibition at 2 µM was determined as 98.8% and the inhibition at 20 µM stood at 102%.

As usually defined, the inhibition is the change of the read-out against control, counted positive when it falls.

(Values after US20120258975A1, “Potent Small Molecule Inhibitors of Autophagy, and Methods of Use Thereof” (Shanghai Institute of Organic Chemistry, priority 2009, published 2012).)
